From patent US20240067600A1, “SMALL MOLECULE INHIBITORS OF THE MITOCHONDRIAL PERMEABILITY TRANSITION PORE (mtPTP)” (UNIVERSITY OF KANSAS, priority 2014, published 2024)
Read-outs that look alike come from different tables or passages of the source.

What was measured:
Type in all cases: biochemical, mice
[1] = test system: mtPTP; test: Calcium retention capacity (CRC) assay on isolated mitochondria; conditions: for Calcium Retention Capacity (CRC/CRC0 at 12.5 μM): 12.5 μM compound; for Calcium Retention Capacity (CRC/CRC0) at 1.56 μM: 1.56 μM compound
Description: Assay buffer: 250 mM sucrose, 10 mM MOPS-Tris, 0.01 mM EGTA-Tris, 1.0 mM phosphoric acid-Tris, pH 7.4. • Solution 1. 10 mM glutamate and 5 mM malate in Assay buffer. • Solution 2. 1% DMSO in Solution 2. • Solution 3. 0.5 mg/mL mitochondria and 1.0 μM Calcium Green-5N in Assay Buffer. • Solution 4. 0.25 mM CaCl2).
Protocol Summary: • 1. Freshly isolate mitochondria, prepare solutions according to the recipes in the Reagent Section. • 2. Dispense 100 μL of Solution 2 to Columns 1-2 (negative control) of the 96-well black assay plate (Falcon 353376). • 3. Dispense 200 μL of Solution 1 to Row A Columns 3-12. • 4. Next, dispense 100 μL of Solution 2 to Rows B-H Columns 3-12. • 5. Add 4 μL of 5 mM test compounds in DMSO to Row A Columns 3-12, perform 1:2 serial dilutions Row A to H Columns 3-12. • 6. Finally, dispense 100 μL of Solution 3 in all wells. • 7. Experiment starts. Read Calcium Green-5N fluorescence (excitation 485 nm, emission 538 nm) and perform a train of 4 μL Solution 4 additions with Fluoroskan Ascent FL, Thermo Scientific.

[2] = test system: Mitochondrial Permeability Transition Pore; test: Mitochondrial swelling absorbance assay
Description: Mitochondrial Swelling (Hit Validation, Confirmatory Assay, Concentration-Response, AID No. 720722)
Assay buffer: 250 mM sucrose, 10 mM MOPS-Tris, 0.01 mM EGTA-Tris, 1.0 mM phosphoric acid-Tris, pH 7.4 • Solution 1. 5.0 mM glutamate and 2.5 mM malate in Assay buffer. • Solution 2. 80-120 μM CaCl2) depending on mitochondrial activity in Solution 1. Note: Concentration of Ca^2+ in the assay is dependent upon the activity of the isolated mitochondria which is determined via a calcium titration just before each screening batch. A Ca^2+ concentration is used that allows for the arrival at a 2:1 window at the 20 minute time period. • Solution 3. 1% DMSO in Solution 2. • Solution 4. 2.0 mM EGTA-Tris, pH 7.4 in Solution 3. • Solution 5. 0.5 mg/mL mitochondria in Assay Buffer.
Protocol Summary: • 1. Freshly isolate mitochondria, prepare solutions according to the recipes in the reagent section • 2. Dispense 100 μL of Solution 4 to Columns 1-2 and Solution 3 Columns 11-12 (positive and negative controls, respectively) of the 96-well clear assay plate (Falcon 353072) • 3. Dispense 200 μL of Solution 1 to Row A Columns 3-10. • 4. Next, dispense 100 μL of Solution 3 to Rows B-H Columns 3-10. • 5. Add 4 μL of 5 mM test compounds in DMSO to Row A Columns 3-10, perform 1:2 serial dilutions Row A to H Columns 3-10. • 6. Finally, dispense 100 μL of Solution 5 in all wells. The reaction starts. • 7. Keep the plate at room temperature for 20 minutes and then read absorbance at 540 nm on MultiSkan EX, Thermo Scientific.
Concentration-Response Assay to Identify Compounds that Inhibit Mitochondrial Swelling (SAR Assay AID No. 743359)
Assay buffer: 250 mM sucrose, 10 mM MOPS-Tris, 0.01 mM EGTA-Tris, 1.0 mM phosphoric acid, pH 7.4 • Solution 1. 5.0 mM glutamate and 2.5 mM malate in Assay Buffer. • Solution 2. 100-120 μM CaCl2) depending on mitochondrial activity in Solution 1. Note: Concentration of Ca^2+ in the assay is dependent upon the activity of the isolated mitochondria which is determined via a calcium titration just before each screening batch. A Ca^2+ concentration is used that allows for the arrival at a 2:1 window at the 20 minute time period. • Solution 3. 1% DMSO in Solution 2. • Solution 4. 2.0 mM EGTA-Tris, pH 7.4 in Solution 3. • Solution 5. 0.5 mg/mL mitochondria in Assay Buffer.
Protocol Summary: • 1. Freshly isolate mitochondria, prepare solutions according to the recipes in the Reagent Section. • 2. Dispense 100 μL of Solution 4 to Columns 1-2 and Solution 3 Columns 11-12 (positive and negative controls, respectively) of the 96-well clear assay plate (Falcon 353072). • 3. Dispense 200 μL of Solution 1 to Row A Columns 3-10. • 4. Next, dispense 100 μL of Solution 3 to Rows B-H Columns 3-10. • 5. Add 4 μL of 5 mM test compounds in DMSO to Row A Columns 3-10, perform 1:2 serial dilutions Row A to H Columns 3-10. • 6. Finally, dispense 100 μL of Solution 5 in all wells. The reaction starts. • 7. Keep the plate at room temperature for 20 minutes and then read absorbance at 540 nm on MultiSkan EX, Thermo Scientific.

[3] = test system: IMM potential; test: Rhodamine 123 (Rh123) uptake counterscreen;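 further: isolated mitochondria respiring on glutamate plus malate in sucrose MOPS-Tris buffer at pH 7.4, Rh123 added with the organelles, compounds tested across a twofold dilution series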
Description: Assay buffer: 250 mM sucrose, 10 mM MOPS-Tris, 0.01 mM EGTA-Tris, 1.0 mM phosphoric acid-Tris, pH 7.4 • Solution 1. 5.0 mM glutamate and 2.5 mM malate in Assay Buffer. • Solution 2. 1% DMSO in Solution 1. • Solution 3. 0.8 μM FCCP (the stock 40 μM in DMSO) in Solution 1. • Solution 4. 0.5 mg/mL mitochondria and 0.8 μM Rh123 in Assay Buffer.
Protocol Summary: • 1. Freshly isolate mitochondria, prepare solutions according to the recipes in the Reagent Section. • 2. Dispense 100 μL of Solution 3 to Columns 1-2 and Solution 2 Columns 11-12 (positive and negative controls, respectively) of the 96-well black assay plate (Falcon 353376). • 3. Dispense 200 μL of Solution 1 to Row A Columns 3-10. • 4. Next, dispense 100 μL of Solution 2 to Rows B-H Columns 3-10. • 5. Add 4 μL of 10 mM test compounds in DMSO to Row A Columns 3-10, perform 1:2 serial dilutions Row A to H Columns 3-10. • 6. Finally, dispense 100 μL of Solution 4 in all wells. The reaction starts. • 7. Keep the plate at room temperature for 5 minutes and then read fluorescence (excitation 485 nm, emission 538 nm) on Fluoroskan Ascent FL, Thermo Scientific.
Concentration-Response Counterscreen Assay to Identify Compounds that Prevent Mitochondrial Swelling Via Interference with the IMM Potential (SAR Assay AID No. 743361)
Assay buffer: 250 mM sucrose, 10 mM MOPS-Tris, 0.01 mM EGTA-Tris, 1.0 mM phosphoric acid-Tris, pH 7.4 • Solution 1. 5.0 glutamate and 2.5 mM malate in Assay Buffer. • Solution 2. 1% DMSO in Solution 1. • Solution 3. 0.8 μM FCCP (the stock 40 μM in DMSO) in Solution 1. • Solution 4. 0.5 mg/mL mitochondria and 0.8 μM Rh123 in Assay Buffer.

[4] = Table 1, read-out: Rh123 uptake (EC50)
[5] = Table 2, average of >3 experiments ± SEM
[6] = Table 2, average of >3 experiments ± SEM, read-out: Rh123 Assay EC50
[7] = Table 1, unit inferred, average ± SEM

Row | SMILES | Calcium Retention Capacity (CRC/CRC0 at 12.5 μM) ([1]; Table 1, average ± SEM) | EC50 ([2]; Table 1, average ± SEM) [µM] | EC50 [3, 4] [µM] | further results
1 | Cc1ccccc1NC(=O)c1cc(-c2ccc(O)cc2)on1 | 2.94 ± 0.46 | 2.45 ± 0.148 | > 100 | 
2 | COc1ccc(Cl)cc1C(=O)Nc1ccc(CN2CCNCC2)cc1 [drawing 151] | 1.24 ± 0.04 | 6.87 ± 0.423 | > 100 | 
3 | COc1ccc(-c2cc(C(=O)Nc3cccc(Cl)c3Cl)no2)cc1O |  | 0.108 ± 0.01 | > 100 | Calcium Retention Capacity (CRC/CRC0) at 1.56 μM ([1]; Table 1, average ± SEM): 5.21 ± 0.50 (at 1.56 μM)
4 | O=C(Nc1ccc(CN2CCNCC2)cc1)c1ccc(Cl)c(OCc2ccccc2)c1 [Entry 7] |  |  |  | Calcium Retention Capacity (CRC/CRC0 at 12.5 μM) [1, 5]: 18.3 ± 1.3; EC50 [2, 5]: 0.206 ± 0.021 µM; EC50 [3, 6]: 46.4 ± 3.2 µM
5 | O=S(=O)(Nc1ccc(CCN2CCNCC2)cc1)c1cc(Cl)cc(Cl)c1 | 1.09 ± 0.05 | 21.4 ± 0.983 | > 100 | 
6 | COc1ccc(-c2cc(C(=O)Nc3cc(Cl)cnc3C)no2)cc1O | 13.47 ± 1.32 | 0.011 ± 0.0011 | > 100 | Calcium Retention Capacity (CRC/CRC0) at 1.56 μM ([1]; Table 1, average ± SEM): 10.10 ± 1.14
7 | COc1ccc(-c2cc(C(=O)Nc3cc(Cl)ncc3C)no2)cc1O [drawing 129] |  |  |  | EC50 [2, 7]: 0.366 ± 0.0475 µM
8 | Cc1cc(Cl)cc(NC(=O)c2cc(-c3ccc(F)c(O)c3)on2)c1 | 6.08 ± 0.52 | 0.819 ± 0.0589 | > 100 | 
9 | O=C(Nc1cc(Cl)cc(Cl)c1)c1cc(-c2ccc(F)c(O)c2)on1 [drawing 140] | 7.14 ± 0.69 |  | > 100 | EC50 [2, 7]: 0.0756 ± 0.0092 µM
10 | COc1ccc(-c2cc(C(=O)Nc3cccc(Cl)c3)no2)cc1O | 7.18 ± 0.87 | 0.035 ± 0.0042 | > 100 | 
11 | CN1CCN(c2ccc(NS(=O)(=O)c3cccc(Cl)c3)cc2)CC1 | 1.05 ± 0.03 | 37.5 ± 3.63 | > 100 | 
12 | O=C(Nc1cccc(Cl)c1)c1cc(-c2ccc(F)c(O)c2)on1 | 10.17 ± 0.69 | 0.013 ± 0.002 | > 100 | 
13 | O=C(Nc1cc(Cl)ccc1OCc1ccccc1)c1cc(-c2cccc(O)c2)on1 | 1.59 ± 0.33 | 17.6 ± 2.21 | > 100 | 
14 | O=C(Nc1cc(Cl)ccc1Cl)c1cc(-c2ccc(F)c(O)c2)on1 | 12.15 ± 1.36 | 0.066 ± 0.0032 | > 100 | Calcium Retention Capacity (CRC/CRC0) at 1.56 μM ([1]; Table 1, average ± SEM): 6.50 ± 0.77
15 | Cc1ncc(Cl)cc1NC(=O)c1cc(-c2ccc(Cl)c(O)c2)on1 |  | 0.00134 ± 0.00026 | > 100 | Calcium Retention Capacity (CRC/CRC0) at 1.56 μM ([1]; Table 1, average ± SEM): 6.91 ± 0.47 (at 1.56 μM)
16 | COc1c(Cl)cccc1NC(=O)c1cc(-c2cccc(O)c2)on1 | 1.83 ± 0.17 | 42.7 ± 2.59 | > 100 | 
17 | CC1(C)CCN(CCCC(=O)c2ccc(Br)cc2)CC1 | 1.10 ± 0.05 | 18 ± 1.33 | > 100 | 
18 | O=C(Nc1cccc(Cl)c1Cl)c1cc(-c2ccc(F)c(O)c2)on1 [drawing 193] | 11.21 ± 1.38 | 0.071 ± 0.0011 | > 100 | 
19 | O=C(Nc1ccc(CN2CCCCC2)cc1)c1ccc(Cl)c(OCc2ccc(F)cc2)c1 [Entry 12] |  |  |  | Calcium Retention Capacity (CRC/CRC0 at 12.5 μM) [1, 5]: 10.1 ± 0.8; EC50 [2, 5]: 0.49 ± 0.08 µM; EC50 [3, 6]: 28.6 ± 1.1 µM
20 | O=C(Nc1ccc(CN2CCCCC2)cc1)c1cc(OCc2ccccc2)ccc1Cl [Entry 3] |  |  |  | Calcium Retention Capacity (CRC/CRC0 at 12.5 μM) [1, 5]: 2.26 ± 0.11; EC50 [2, 5]: 3.6 ± 0.17 µM; EC50 [3, 6]: 75.7 ± 1.8 µM
21 | O=C(Nc1cccc(Cl)c1)c1cc(-c2cccc(O)c2)on1 [drawing 166] | 5.47 ± 0.57 |  |  | 
22 | COc1ccc(-c2cc(C(=O)Nc3cc(Cl)cc(Cl)c3)no2)cc1O [drawing 192] | 3.52 ± 0.44 |  |  | 
23 | COc1ccc(Cl)cc1C(=O)Nc1ccc(CCN2CCN(C(=O)OC(C)(C)C)CC2)cc1 [drawing 174] | 1.90 ± 0.11 |  |  | 
24 | COc1ccc(/C=C/C(=O)Nc2cccc(Cl)c2)cc1O [drawing 175] | 14.02 ± 1.63 |  |  | 
